{"source": "patent US20040214238A1", "about": "(priority 2003, published 2004)", "key": {"N-type calcium channel": {"test_system": "N-type calcium channel", "details": "in vivo; cited from earlier work"}, "[1]": {"target": "vanilloid receptor (VR1) in DRG neurons (Rattus norvegicus, UniProt O35433)", "sequence (O35433 whole entry)": "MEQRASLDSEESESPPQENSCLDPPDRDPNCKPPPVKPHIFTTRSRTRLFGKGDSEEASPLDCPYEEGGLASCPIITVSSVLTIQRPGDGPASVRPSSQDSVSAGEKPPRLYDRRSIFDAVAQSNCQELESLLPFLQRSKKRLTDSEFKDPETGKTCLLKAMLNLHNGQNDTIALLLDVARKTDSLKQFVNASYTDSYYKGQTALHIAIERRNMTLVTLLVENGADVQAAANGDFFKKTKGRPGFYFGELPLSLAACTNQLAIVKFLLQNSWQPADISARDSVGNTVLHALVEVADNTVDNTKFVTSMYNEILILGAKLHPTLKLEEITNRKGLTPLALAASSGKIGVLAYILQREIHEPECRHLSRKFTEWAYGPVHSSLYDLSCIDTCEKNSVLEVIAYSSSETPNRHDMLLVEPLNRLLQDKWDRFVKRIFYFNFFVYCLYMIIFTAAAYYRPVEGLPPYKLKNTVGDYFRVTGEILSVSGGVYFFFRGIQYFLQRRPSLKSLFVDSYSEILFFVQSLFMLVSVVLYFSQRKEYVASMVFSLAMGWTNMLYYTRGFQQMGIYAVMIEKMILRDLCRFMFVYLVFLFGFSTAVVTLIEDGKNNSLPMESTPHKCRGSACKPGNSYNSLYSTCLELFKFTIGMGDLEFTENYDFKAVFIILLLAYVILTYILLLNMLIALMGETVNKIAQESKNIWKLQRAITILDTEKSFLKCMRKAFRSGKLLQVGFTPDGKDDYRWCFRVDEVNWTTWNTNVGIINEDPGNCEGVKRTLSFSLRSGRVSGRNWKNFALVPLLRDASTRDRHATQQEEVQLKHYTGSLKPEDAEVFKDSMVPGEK", "experiment": "capsaicin screening by whole cell voltage clamp at -60 mV", "details": "2 μM capsaicin, 128 responsive neurons", "method": "Viable neurons were identified using whole cell voltage clamp recordings based on the presence of robust voltage-gated sodium and potassium currents. Neurons were then exposed to 2 μM capsaicin (Sigma). After exposure, the bath was washed and the cell allowed to recover. Capsaicin-responsive cells had to recover after wash to be included. Capsaicin-non-responsive neurons were expose at least twice to capsaicin before the cell was collected and counted as capsaicin-non-responsive. Coverslips in the study were limited to two exposures of capsaicin to avoid desensitization. 1-2 MΩ microelectrodes were filled with an internal solution consisting of 90 mM KCl, 10 mM NaCl, 5 mM MgCl2, 40 mM HEPES, 5 mM EGTA and the pH was adjusted to 7.4 with KOH. The bath solution contained 140 mM NaCl, 5 mM KCl, 2 mM CaCl2, 0.5 mM MgCl2, 10 mM HEPES, and 15 mM Dextrose. […]\nViable neurons were identified by the presence of robust voltage-gated sodium and potassium currents during brief depolarizations from a holding potential of −80 mV. […] Capsaicin-non-responsive neurons were exposed to capsaicin at least twice before the cell was harvested and counted as capsaicin-non-responsive. […] For capsaicin screening, currents were recorded using 1-2 MΩ microelectrodes filled with an internal solution consisting of 90 mM KCl, 10 mM NaCl, 5 mM MgCl2 40 mM HEPES, and 5 mM EGTA adjusted to a pH of 7.4 with KOH. […]"}, "[2]": {"test_system": "N-type calcium current in neurons of the dorsal root ganglia", "format": "cell-based, rat"}, "CaV1.3 L-type channels": {"test_system": "CaV1.3 L-type channels", "details": "cited from earlier work"}}, "note": "“And” between values parts separate entries of the source, which are not always exact repeats. Equal entries are not always repeated."}
{"compound": "CSCC[C@@H]1NC(=O)[C@H](CC(C)C)NC(=O)[C@H](CCCNC(=N)N)NC(=O)[C@H](CO)NC(=O)[C@@H]2CSSC[C@@H]3NC(=O)[C@H](CO)NC(=O)CNC(=O)[C@H]([C@@H](C)O)NC(=O)[C@H](CSSC[C@H](N)C(=O)N[C@@H](CCCCN)C(=O)NCC(=O)N[C@@H](CCCCN)C(=O)NCC(=O)N[C@@H](C)C(=O)N[C@@H](CCCCN)C(=O)N2)NC(=O)[C@H](CSSC[C@@H](C(N)=O)NC(=O)[C@H](CCCCN)NC(=O)CNC(=O)[C@H](CO)NC(=O)[C@H](CCCNC(=N)N)NC3=O)NC(=O)[C@H](CC(=O)O)NC(=O)[C@H](Cc2ccc(O)cc2)NC1=O", "note": "[MVIIA]", "values": [{"measurement": "analgesic activity", "setting": "N-type calcium channel", "value": "powerful analgesic"}, {"measurement": "side effects as analgesic", "setting": "N-type calcium channel", "value": "undesirable side effects"}]}
{"compound": "COc1cc(CNC(=O)CCCC/C=C/C(C)C)ccc1O", "note": "[capsaicin]", "values": [{"measurement": "average amplitude of capsaicin-induced inward current", "setting": "[1]", "value": "986±118", "unit": "pA"}]}
{"compound": "ω-conotoxin GVIA (CKSPGSSCSPTSYNCCRSCNPYTKRCY) [ω-Ctx GVIA]", "values": [{"measurement": "ω-Ctx GVIA-sensitive current as % of the total whole cell calcium current", "setting": "[2]", "value": "71±2% and 68±2%"}, {"measurement": "ω-Ctx GVIA-sensitive, N-type current as component of the total Ca current", "setting": "[2]", "value": "~70", "unit": "%"}, {"measurement": "effect on CaV1.3 L-type current", "setting": "CaV1.3 L-type channels", "value": "inhibited by high concentrations"}, {"measurement": "effect on neuronal CaV1.3 L-type channels", "setting": "CaV1.3 L-type channels", "value": "not ω-Ctx GVIA-sensitive"}]}
